A word on the inhibition: it is the drop in the measured response relative to a control, in per cent. In general, Ki refers to a measure of affinity in units of concentration, obtained from inhibition or displacement. The low end stands for a stronger hold on the target, the high end for a looser hold on the target.

From patent US7279498B2, “Substituted aryl amides as IP antagonists” (Roche Palo Alto LLC, priority 2003, dated 2007) come the findings set out here.

Data set [1] concerns the target T1, hERG potassium channel (Homo sapiens, UniProt Q12809).
T1 construct: expressed in transfected cells; host or cells: CHO-K1 cells
The experiment in a line: hERG Potassium Channel Pharmacology Screening (whole-cell patch-clamp, CHO-K1 cells). It is filed as cell-based. The conditions noted are these: CHO-K1 cells expressing recombinant human hERG channel, read-out: hERG outward current inhibition percentage. How it is done:
The effects of the subject compounds on recombinant hERG potassium channels expressed in CHO-K1 cells was determined according to the procedure reported by Hamill et al., 1981, Pflügers Arch., 391, 85–100
The following solutions were used to isolate potassium currents in cultured cell lines: extracellular (in mM), NaCl (150), KCl (4), HEPES (10), CaCl2 (1.2), MgCl2 (1), adjusted to pH 7.4 with NaOH; intracellular (in mM), KCl (140), HEPES (10), EGTA (5), MgCl2 (6), ATP-Na2 (5), adjusted to pH 7.2 with KOH.
Whole-cell patch-clamp methods were used to record potassium currents from CHO.K1 cells expressing the human hERG channel. Each cell was held at a negative holding potential of −80 mV. […] Peak tail current amplitudes at the different test potentials were measured to obtain the current-voltage relationship.
A second protocol was used to investigate the effects of compounds on hERG currents. […] Drugs were applied once a stable baseline has been recorded for 5 min. […]
Voltage-dependent potassium currents were recorded from single cells at room temperature (20–22° C.) using the whole-cell configuration of the patch-clamp technique. […]
The peak amplitude of outward currents are measured using Clampfit software to find peak amplitude. […]
Statistics were calculated using Microcal Origin and Prism software, and results were reported as mean+/−standard error of the mean. […]
(In general: The hERG channel carries a current that helps repolarise heart muscle cells.)

Data set [2] addresses T2, rat prostanoid IP receptor (Rattus norvegicus, UniProt P43253).
T2 construct: expressed in transfected cells; host or cells: Chinese Hamster Ovary cells (kept under geneticin)
The experiment in a line: IP receptor activity assay: cyclic AMP accumulation (cAMP Flashplate) in CHO cells. It is filed as cell-based. The settings on record: CHO cells expressing the rat prostanoid IP receptor. As to the method:
The IP receptor agonist potency of compounds of this invention in vitro was determined by measuring the agonist-mediated cyclic AMP accumulation in an assay utilizing Chinese Hamster Ovary cells expressing the rat prostanoid IP receptor. Cyclic AMP levels were determined using a commercially available Adenylate Cyclase cAMP Flashplate Assay.
Chinese Hamster Ovary cells expressing the rat prostanoid IP receptor were maintained in Ham's Mixture with 10% fetal bovine serum, […] geneticin in 5% carbon dioxide ([…]). Cells were harvested at approximately 90% confluency using Dulbecco's Phosphate-Buffered saline containing 2 mM EDTA, and washed once at 1000×g and resuspended in Wash Buffer. A sample was aliquoted for protein determination. The cell suspension was centrifuged at 1000×g and adjusted to 110–140 E+3 cells/50 μl in the “Stimulation and Detection Buffer” from the assay kit.
The test compounds or vehicle were incubated with 50 μl cells (110–140 E+3 cells) for 5 minutes at room temperature. After the incubation, 100 μl lysis/tracer solution was added to the wells and the radioactivity counted on a Packard Topcount microplate scintillation counter after overnight incubation. The amount of radioactive cAMP bound to the antibody is inversely proportional to the concentration of added non-radioactive cAMP. […]

T1 sequence (Q12809 whole entry): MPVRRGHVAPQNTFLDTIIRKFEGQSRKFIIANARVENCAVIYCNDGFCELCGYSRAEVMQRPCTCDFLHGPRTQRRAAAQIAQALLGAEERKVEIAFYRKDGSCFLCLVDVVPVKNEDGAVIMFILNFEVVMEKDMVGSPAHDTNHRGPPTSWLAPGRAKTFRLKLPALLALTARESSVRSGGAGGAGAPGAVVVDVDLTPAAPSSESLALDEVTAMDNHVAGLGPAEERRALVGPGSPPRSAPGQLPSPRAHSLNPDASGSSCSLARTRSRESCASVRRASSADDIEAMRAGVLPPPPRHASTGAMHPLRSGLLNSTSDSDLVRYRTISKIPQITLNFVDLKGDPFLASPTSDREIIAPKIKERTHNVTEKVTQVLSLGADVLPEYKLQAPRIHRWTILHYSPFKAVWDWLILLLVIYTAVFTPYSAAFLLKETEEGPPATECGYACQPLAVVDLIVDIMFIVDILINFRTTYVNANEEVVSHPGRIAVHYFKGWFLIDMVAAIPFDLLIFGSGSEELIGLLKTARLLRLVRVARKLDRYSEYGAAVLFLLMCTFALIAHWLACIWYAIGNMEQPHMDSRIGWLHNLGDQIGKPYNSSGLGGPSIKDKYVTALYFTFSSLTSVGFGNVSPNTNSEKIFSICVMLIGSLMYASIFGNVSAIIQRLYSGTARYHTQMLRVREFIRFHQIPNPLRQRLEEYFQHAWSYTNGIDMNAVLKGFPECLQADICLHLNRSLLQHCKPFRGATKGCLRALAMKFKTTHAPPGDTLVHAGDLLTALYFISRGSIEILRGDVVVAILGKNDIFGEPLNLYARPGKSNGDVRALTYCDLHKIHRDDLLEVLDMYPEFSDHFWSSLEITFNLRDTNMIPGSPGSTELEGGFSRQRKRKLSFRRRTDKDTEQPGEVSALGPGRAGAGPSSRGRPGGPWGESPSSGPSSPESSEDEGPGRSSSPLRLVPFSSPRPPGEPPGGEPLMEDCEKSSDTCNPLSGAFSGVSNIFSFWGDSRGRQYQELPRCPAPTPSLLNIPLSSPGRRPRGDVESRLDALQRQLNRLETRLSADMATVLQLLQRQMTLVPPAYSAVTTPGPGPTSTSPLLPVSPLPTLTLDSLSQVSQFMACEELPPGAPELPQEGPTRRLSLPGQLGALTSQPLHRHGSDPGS
T2 sequence (P43253 whole entry): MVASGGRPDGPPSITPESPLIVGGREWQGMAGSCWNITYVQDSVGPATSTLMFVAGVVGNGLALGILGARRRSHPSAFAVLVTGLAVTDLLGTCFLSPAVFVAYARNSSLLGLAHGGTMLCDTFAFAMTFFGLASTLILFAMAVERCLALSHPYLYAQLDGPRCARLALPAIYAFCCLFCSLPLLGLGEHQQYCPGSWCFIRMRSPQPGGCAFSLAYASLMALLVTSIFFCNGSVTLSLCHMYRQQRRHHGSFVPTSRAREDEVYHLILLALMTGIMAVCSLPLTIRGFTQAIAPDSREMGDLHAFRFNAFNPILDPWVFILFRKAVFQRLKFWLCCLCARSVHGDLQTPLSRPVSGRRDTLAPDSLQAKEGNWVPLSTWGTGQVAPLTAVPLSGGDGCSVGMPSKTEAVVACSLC

Take `COc1ccc(C(=O)NCc2ccc(NC3=NCCN3)cc2)cc1` [compound 96, N-[4-(4,5-Dihydro-1H-imidazol-2-yl-amino)-benzyl]-4-methoxy-benzamide]: the inhibition at 1 µM in data set [1] (pH 7.4, at 1 uM) amounted to 4.3 ± 4.4%. Moreover, the inhibition at 10 µM in data set [1] (pH 7.4, at 10 uM) turned out to be 10.8 ± 7.2%. In addition, the inhibitory constant (Ki) in data set [2] was around 7.59 nM.
